≈ marks a conversion by molar mass, not a printed value. Like-named read-outs stand apart in the source and are kept apart here.
Assays:
[1] = system: Serine-carbapenemase-producing Enterobacterales (6); assay: MIC and MBC testing; format: cell-based; conditions: 6 serine-carbapenemase-producing Enterobacterales; fixed BLI concentration (μg/mL) in label
[2] = system: Klebsiella pneumoniae ATCC BAA-2344 (KPC-2); assay: Lethal mouse model of systemic infection; conditions: ATCCBAA2344, in Mus musculus
[3] = system: E. coli ATCC BAA-2469 (NDM-1); assay: MIC, broth microdilution; format: cell-based, Escherichia coli
[4] = system: P. aeruginosa CDC-90 (KPC-5); assay: MIC, broth microdilution; format: cell-based; conditions: Pseudomonas aeruginosa, agent alone
[5] = system: A. baumannii CDC-35 (OXA-66 and OXA-72 producer); assay: Neutropenic murine thigh infection model; conditions: MEM 50 mg/kg q3h sc for 24 h
[6] = system: E. coli ATCC BAA-2469 (NDM-1); assay: Lethal mouse model of systemic infection; conditions: Escherichia coli, ATCCBAA2469, in Mus musculus, sc
[7] = system: Acinetobacter baumannii (46); assay: MIC, broth microdilution; format: cell-based
[8] = system: Atopobium rimae KUB3014; assay: MIC, agar dilution, reference strains of anaerobic bacteria; format: cell-based; conditions: Lancefieldella rimae
[9] = biological target: SHV-5 (Klebsiella pneumoniae, UniProt P0A3M1); assay: Ki app determination (Waley's method)
[10] = biological target: IMP-6 (Serratia marcescens, UniProt P52699, S214G); assay: Ki app determination (Waley's method)
[11] = biological target: KPC-38 (Klebsiella pneumoniae, UniProt Q9F663); assay: Ki app determination (Waley's method); conditions: read-out: Ki app, means from three independent studies
[12] = system: Clostridium perfringens ATCC 13124; assay: microbe, parasite or virus in culture; format: cell-based; conditions: ATCC13124
[13] = biological target: IMP-1 (Serratia marcescens, UniProt P52699); assay: Ki app determination (Waley's method)
[14] = biological target: SHV-12 (Klebsiella pneumoniae, UniProt P0A3M1, L31Q); assay: Ki app determination (Waley's method)
[15] = system: Bacteroides fragilis KUB2982; assay: MIC, agar dilution, reference strains of anaerobic bacteria; format: cell-based
[16] = system: Clostridioides difficile ATCC 700057; assay: as above; format: cell-based; conditions: ATCC700057
[17] = system: Parvimonas micra KUB3000; assay: as above; format: cell-based
[18] = system: the other seven anaerobic strains; assay: Intrinsic antibacterial activity, MIC agar dilution; format: cell-based
Protocol: MICs were determined by the broth microdilution method and agar dilution method (for anaerobic bacteria only) according to CLSI ([37], [38]). When investigating the effect of HSA on the MICs, CAMHB with 4% HSA (FUJIFILM Wako Pure Chemical Corporation) was used. […] The MBC was defined as the lowest drug concentration at which ≥99.9% of the original inoculum was killed.

[19] = biological target: NDM-4 (Klebsiella pneumoniae, UniProt C7C422, M154L); assay: Ki app determination (Waley's method)
[20] = system: Bacteroides ovatus KUB3009; assay: MIC, agar dilution, reference strains of anaerobic bacteria; format: cell-based
[21] = biological target: NDM-6 (Klebsiella pneumoniae, UniProt C7C422, A233V); assay: Ki app determination (Waley's method)
[22] = system: 12 Gram-positive strains (including methicillin-sensitive staphylococci and streptococci); assay: Intrinsic antibacterial activity, MIC; format: cell-based; conditions: KSP-1007 alone
[23] = biological target: VIM-1 (Pseudomonas aeruginosa, UniProt A0A0F7KYQ8); assay: Ki app determination (Waley's method)
[24] = biological target: OXA-66 (Acinetobacter baumannii, UniProt Q58XD2); assay: Ki app determination (Waley's method)
[25] = system: Bacteroides thetaiotaomicron KUB2984; assay: MIC, agar dilution, reference strains of anaerobic bacteria; format: cell-based
[26] = biological target: VIM-2 (Escherichia coli, UniProt Q5U7L7); assay: Ki app determination (Waley's method)
[27] = biological target: NDM-5 (Klebsiella pneumoniae, UniProt C7C422, M154L/V88L); assay: Ki app determination (Waley's method)
[28] = system: Eggerthella lenta ATCC 43055; assay: MIC, agar dilution, reference strains of anaerobic bacteria; format: cell-based; conditions: ATCC43055
[29] = system: Prevotella melaninogenica KUB3005; assay: as above; format: cell-based
[30] = system: Propionibacterium acnes ATCC 11827; assay: as above; format: cell-based; conditions: Cutibacterium acnes, ATCC11827
[31] = biological target: OXA-48 (Klebsiella pneumoniae, UniProt Q6XEC0); assay: Ki app determination (Waley's method)
[32] = system: Bacteroides fragilis KUB2983; assay: MIC, agar dilution, reference strains of anaerobic bacteria; format: cell-based
[33] = biological target: KPC-3 (Klebsiella pneumoniae, UniProt Q9F663, H272Y); assay: Ki app determination (Waley's method)
[34] = CLSI breakpoints, marked c: breakpoints for β-lactam alone

Work on `C[C@@H](O)[C@H]1C(=O)N2C(C(=O)O)=C(S[C@@H]3CN[C@H](C(=O)N(C)C)C3)[C@H](C)[C@H]12` [MEM, meropenem] yielded an MIC Range [1] of 1 to 64 µg/mL, an ED50 ([2]; read-out: ED50 of MEM (95% confidence intervals), K. pneumoniae ATCC BAA-2344, Experiment 1, single sc dose 2 h after ip inoculation, survival day 7, dose ratio in label) of 205 mg/kg and an ED50 ([2]; read-out: ED50 of MEM (95% confidence intervals), K. pneumoniae ATCC BAA-2344, Experiment 2, single sc dose 2 h after ip inoculation, survival day 7, dose ratio in label) of 54.8 mg/kg. It also gave an MIC ([3]; Escherichia coli, ATCCBAA2469, Experiment 1, agent alone, read-out: MIC) of 32 µg/mL (≈ 83.4 µM), an MIC ([3]; Experiment 2, agent alone) of 32 µg/mL (≈ 83.4 µM) and an MIC [4] of 32 µg/mL (≈ 83.4 µM). For the same compound, the “bacterial growth in the thigh compared with the control group” value [5] was “no significant reduction in bacterial growth”, the ED50 ([6]; read-out: ED50 of MEM (95% confidence intervals), E. coli ATCC BAA-2469, Experiment 1, single sc dose, survival day 7, dose ratio in label) was 103 mg/kg and the ED50 ([6]; read-out: ED50 of MEM (95% confidence intervals), E. coli ATCC BAA-2469, Experiment 2, single sc dose, survival day 7, dose ratio in label) was 118 mg/kg. For the same compound, the “CLSI MIC interpretation I (intermediate)” value [7, 34] was 0%, the “CLSI MIC interpretation R (resistant)” value [7, 34] was 100% and the “CLSI MIC interpretation S (susceptible)” value [7, 34] was 0%. It also gave an MIC50 ([7]; fixed concentration (μg/mL) in label) of 32 µg/mL (≈ 83.4 µM).

`N[C@@H](C(=O)N1CC(Oc2ccc3c(c2C(=O)O)OB(O)CC3)C1)c1c[nH]cn1` [KSP-1007, 7-({1-[(2R)-2-amino-2-(1H-imidazol-4-yl)acetyl]azetidin-3-yl}oxy)-2-hydroxy-3,4-dihydro-2H-1,2-benzoxaborinine-8-carboxylic acid] gave an MIC [8] of 8 µg/mL (≈ 20.7 µM), a Ki [9] of 127 ± 16 nM and a Ki [10] of 19900 nM. It also gave a Ki [11] of 0.836 ± 0.414 nM, an MIC [12] of 2 µg/mL (≈ 5.18 µM) and a Ki [13] of 512 ± 119 nM. It also gave a Ki [14] of 53.5 ± 12.2 nM, an MIC [15] of 16 µg/mL (≈ 41.4 µM) and an MIC [16] of over 256 µg/mL. The MIC [17] was 64 µg/mL (≈ 166 µM), the MIC [18] was over 256 µg/mL and the Ki [19] was 153 ± 45.2 nM. For the same compound, the MIC [20] was 128 µg/mL (≈ 331 µM), the Ki [21] was 1050 nM and the “MICs, range” value [22] was 0.25 to 8 µg/mL. For the same compound, the Ki [23] was 350 ± 45.4 nM, the Ki [24] was 5.78 ± 0.654 nM and the MIC [25] was 32 µg/mL (≈ 82.9 µM). For the same compound, the Ki [26] was 1210 nM, the Ki [27] was 31.6 ± 12.3 nM and the MIC [28] was over 256 µg/mL. For the same compound, the MIC [29] was 4 µg/mL (≈ 10.4 µM), the MIC [30] was 32 µg/mL (≈ 82.9 µM) and the Ki [31] was 0.861 ± 0.0767 nM. The MIC [32] was 16 µg/mL (≈ 41.4 µM) and the Ki [33] was 2.19 ± 0.687 nM.
